The values below come from patent US4728733A, “C-3' thiadiazinyl cephalosporin analogs” (American Home Products Corporation, priority 1985, dated 1988).

What is called MIC is the least concentration at which growth counts as inhibited. A lower MIC goes with greater potency.

In brackets after ≈: the same amount, converted by molar mass. Structures can show the parent of a compound that is named as a salt.

Assay type in all cases: cell-based
In assay [1] the test system is Klebsiella pneunomiae KL-1. In words: Antibacterial activity, MIC, procedure A (broth dilution). The following applies: KL1. On the procedure: (§1) The compounds of the invention are tested for their antibacterial activity. The test can be carried out in two ways:
(§2) A. The organisms used in the test comprise the following: Staphylococcus aureus (penicillin-sensitive and resistant), Pseudomonas aeruginosa, Escherichia coli, […], Bordetella bronchiseptica, Proteus vulgaris, P. mirabilis, Acinetobacter calcoaceticus.
(§3) Test organisms may be added or deleted in order to reflect current clinical patterns of antibiotic susceptibility or shifts in pathogenic potential.
(§4) Stock solution of appropriate medium (e.g. Mueller-Hinton Broth) is sterilized. Starting at a predetermined concentration (e.g. 250 μg/ml), two-fold dilutions are made with the Dynatech Automatic Diluter in a Microtiter plate of 8 rows of 12 wells each in which 11 wells in each row contain 50 μl of medium (e.g. Mueller-Hinton Broth) and the 12th well contains in 100 μl an aliquot of the compound to be tested. The diluted plates are inoculated using the Dynatech Automatic Inoculator which delivers the final inoculum (e.g. 10^5 cfu/ml of a seven-hour culture which has been incubated at 35° C.).
(§5) Plates are sealed with tape and incubated (e.g. 18 hours at 35° C.).
For orientation: Dilution methods test growth across graded concentrations, often in twofold steps.

Assay [2] relates to Serratia marcescens ATCC 13880. Described as above. Conditions: ATCC13880. On the procedure:
as §1, §2, §3, §4, §5

The subject of assay [3] is Escherichia coli ATCC 25922. The description is as above. Conditions: ATCC25922. The method, then: as §1, §2, §3, §4, §5
Assay [4] has as its system Proteus vulgaris A 84354 1. The description is as above. Conditions: A843541. The method, then:
as §1, §2, §3, §4, §5

Assay [5] deals with Enterobacter cloacae ATCC 13047. Described as above. The following applies: ATCC13047. On the procedure: as §1, §2, §3, §4, §5
Assay [6] deals with Pseudomonas aeruginosa ATCC 27853. The assay is described as above. The following applies: ATCC27853. The method, then: as §1, §2, §3, §4, §5
In assay [7] the test system is Streptococcus faecalis ATCC 29212. The description is as above. Conditions: Enterococcus faecalis, ATCC29212. On the procedure:
as §1, §2, §3, §4, §5

Assay [8] deals with Staphylococcus aureus ATCC 29213. The assay is described as above. Conditions: ATCC29213. The method, then:
as §1, §2, §3, §4, §5

Assay [9] relates to Klebsiella pneunomiae KL-1. In words: Antibacterial activity, MIC, procedure B (agar dilution). Conditions: KL1. On the procedure:
as §1
(§6) B. The organisms used in the test comprise the following: Staphylococcus aureus (penicillin-sensitive and resistant), Pseudomonas aeruginosa, Escherichia coli, […], Bordetella bronchiseptica, Proteus vulgaris, P. mirabilis, Acinetobacter calcoaceticus.
as §3
(§7) Organisms are normally grown for 18 hours in Brain Heart Infusion at 35° C. Cultures are adjusted with saline to MacFarland No. 1.5 standard prior to use.
(§8) Stock concentrations (e.g. 2,5000 μg or units per ml) are prepared in a suitable vehicle. Two-fold dilutions are made. One ml quantities of each dilution are incorporated in 9 ml of the appropriate agar (e.g. Seed) in sterile Petri plates. The hardened surface is inoculated with test organisms by use of a Steers replicating device. The plates are incubated (e.g. 18 hours at 35° C.) and activity is determined.
Background: In agar dilution the substance is mixed into plates at graded concentrations.

The test system of assay [10] is Serratia marcescens ATCC 13880. The description is as above. The following applies: ATCC13880. The method, then: as §1, §6, §3, §7, §8
In assay [11] the test system is Escherichia coli ATCC 25922. The assay is described as above. The following applies: ATCC25922. The method, then: as §1, §6, §3, §7, §8
Assay [12] has as its system Proteus vulgaris A 84354 1. The assay is described as above. Conditions: A843541. The method, then:
as §1, §6, §3, §7, §8

For assay [13], the system named is Enterobacter cloacae ATCC 13047. Described as above. Conditions: ATCC13047. The method, then:
as §1, §6, §3, §7, §8

In assay [14] the test system is Pseudomonas aeruginosa ATCC 27853. The assay is described as above. Conditions: ATCC27853. On the procedure: as §1, §6, §3, §7, §8
In assay [15] the test system is Streptococcus faecalis ATCC 29212. The description is as above. The following applies: Enterococcus faecalis, ATCC29212. On the procedure:
as §1, §6, §3, §7, §8

The test system of assay [16] is Staphylococcus aureus ATCC 29213. The assay is described as above. Conditions: ATCC29213. On the procedure: as §1, §6, §3, §7, §8

Regarding `CO/N=C(\C(=O)N[C@@H]1C(=O)N2C(C(=O)O)=C(CN3C(=O)c4ccccc4NS3(=O)=O)CS[C@H]12)c1csc(N)n1` [Example 2 C, (6R,7R)-7-[[(Z)-(2-Amino-4-thiazolyl)(methoxyimino)acetyl]amino]-3-[(1,4-dihydro-4-oxo-3H-2,1,3-benzothiadiazin-3-yl)methyl]-8-oxo-5-thia-1-azabicyclo[4.2.0]oct-2-ene-2-carboxylic acid S^3, S^3-dioxide, trifluoroacetate salt], the MIC in assay [1] was found to be 2 µg/mL; in [2], 16 µg/mL; in assay [3], 4 µg/mL; in [4], 0.25 µg/mL; in assay [5], 64 µg/mL; in [6], 128 µg/mL. Also, the figures for the MIC in assay [7] and in [8] were 128 µg/mL and 32 µg/mL, respectively.

On to `CO/N=C(\C(=O)N[C@@H]1C(=O)N2C(C(=O)OC(C)(C)C)=C(CN3C(=O)c4ccccc4NS3(=O)=O)CS[C@H]12)c1csc(N)n1` [Example 2 B, (6R,7R)-7-[[(Z)-(2-Amino-4-thiazolyl)(methoxyimino)acetyl]amino]-3-[(1,4-dihydro-4-oxo-3H-2,1,3-benzothiadiazin-3-yl)methyl]-8-oxo-5-thia-1-azabicyclo[4.2.0]oct-2-ene-2-carboxylic acid 1,1-dimethylethyl ester, S^3, S^3-dioxide], for which the MIC in assay [1] is 4 µg/mL (≈ 6.16 µM); in [2], 64 µg/mL (≈ 98.5 µM); in assay [3] it was 8 µg/mL (≈ 12.3 µM); in [4], 1 µg/mL (≈ 1.54 µM); in [5], 64 µg/mL (≈ 98.5 µM); in assay [6], 128 µg/mL (≈ 197 µM). In addition, the values for the MIC in [7] and in [8] were 128 µg/mL (≈ 197 µM) and 64 µg/mL (≈ 98.5 µM), respectively.

For the molecule `CO/N=C(\C(=O)N[C@@H]1C(=O)N2C(C(=O)OC(C)(C)C)=C(CN3C(=O)C(C#N)=CNS3(=O)=O)CS[C@H]12)c1csc(N)n1` [Example 1 B, (6R,7R)-7-[[(Z)-(2-Amino-4-thiazolyl)(methoxyimino)acetyl]amino]-3-[(4-cyano-3,6-dihydro-3-oxo-2H-1,2,6-thiadiazin-2-yl)methyl]-8-oxo-5-thia-1-azabicyclo[4.2.0]oct-2-ene-2-carboxylic acid 1,1-dimethylethyl ester S^3, S^3-dioxide], the MIC amounted to 1 µg/mL (≈ 1.6 µM) in [9]; 32 µg/mL (≈ 51.2 µM) in [10]; 2 µg/mL (≈ 3.2 µM) in [11]; 0.25 µg/mL (≈ 0.4 µM) in assay [12]; 64 µg/mL (≈ 102 µM) in assay [13]; 256 µg/mL (≈ 410 µM) in [14]. The MIC in assay [15] came out at 256 µg/mL (≈ 410 µM); in assay [16], 64 µg/mL (≈ 102 µM).

With `CO/N=C(\C(=O)N[C@@H]1C(=O)N2C(C(=O)O)=C(CN3C(=O)C(C#N)=CNS3(=O)=O)CS[C@H]12)c1csc(N)n1` [Example 1 C, (6R,7R)-7-[[(Z)-(2-Amino-4-thiazolyl)(methoxyimino)acetyl]amino]-3-[(4-cyano-3,6-dihydro-3-oxo-2H-1,2,6-thiadiazin-2-yl)methyl]-8-oxo-5-thia-1-azabicyclo[4.2.0]oct-2-ene-2-carboxylic acid, S^3, S^3-dioxide, trifluoroacetate salt], the minimum inhibitory concentration (MIC) was 0.125 µg/mL in [9]; 8 µg/mL in assay [10]; 1 µg/mL in [11]; 1 µg/mL in assay [12]; 32 µg/mL in [13]; 256 µg/mL in assay [14]. Moreover, the MIC in assay [15] was 128 µg/mL; in [16], 32 µg/mL.
